Experimental data taken from ChEMBL document CHEMBL3596147, “Synthesis and antitumor activity of 5-(5-halogenated-2-oxo-1H-pyrrolo[2,3-b]pyridin-(3Z)-ylidenemethyl)-2,4-dimethyl-1H-pyrrole-3-carboxamides” (Bioorg Med Chem Lett, 2015).

What was measured:
MCF7 [1] = experiment: Cytotoxicity against human MCF7 cells assessed as inhibition of cell viability at 30 uM after 48 hrs by SRB assay; assay type: functional; conditions: MCF7, 48 h
MCF7 [2] = experiment: Cytotoxicity against human MCF7 cells assessed as inhibition of cell viability after 48 hrs by SRB assay; assay type: functional, cell-based; conditions: MCF7, 48 h
HepG2 = experiment: Cytotoxicity against human HepG2 cells assessed as inhibition of cell viability after 48 hrs by SRB assay; assay type: functional, cell-based; conditions: HepG2, 48 h
HT-29 = experiment: Cytotoxicity against human HT-29 cells assessed as inhibition of cell viability after 48 hrs by SRB assay; assay type: functional, cell-based; conditions: HT-29, 48 h
A549 = experiment: Cytotoxicity against human A549 cells assessed as inhibition of cell viability after 48 hrs by SRB assay; assay type: functional, cell-based; conditions: A549, 48 h
[3] = Cytotoxicity against human PANC1 cells assessed as inhibition of cell viability after 48 hrs by SRB assay; assay type: functional, cell-based; conditions: PANC-1, 48 h
HeLa = experiment: Cytotoxicity against human HeLa cells assessed as inhibition of cell viability after 48 hrs by SRB assay; assay type: functional, cell-based
SK-OV-3 = experiment: Cytotoxicity against human SKOV3 cells assessed as inhibition of cell viability after 48 hrs by SRB assay; assay type: functional, cell-based; conditions: SK-OV-3, 48 h

CCOC(=O)c1c(C)[nH]c(/C=C2\C(=O)Nc3ncc(Br)cc32)c1C
inhibition at 30 µM (MCF7 [1]): 6.3%

Cc1[nH]c(/C=C2\C(=O)Nc3ncc(Cl)cc32)c(C)c1C(=O)NCCN(C)C
inhibition at 30 µM (MCF7 [1]): 45.7%

Cc1[nH]c(/C=C2\C(=O)Nc3ncc(Br)cc32)c(C)c1C(=O)NC1CC1
inhibition at 30 µM (MCF7 [1]): 5.5%

CCOC(=O)c1c(C)[nH]c(/C=C2\C(=O)Nc3ncc(Cl)cc32)c1C
inhibition at 30 µM (MCF7 [1]): 54.8%

Cc1[nH]c(/C=C2\C(=O)Nc3ncc(Cl)cc32)c(C)c1C(=O)O
inhibition at 30 µM (MCF7 [1]): 15.8%

Cc1[nH]c(/C=C2\C(=O)Nc3ncc(F)cc32)c(C)c1C(=O)NCCOc1ccccc1
inhibition at 30 µM (MCF7 [1]): 2.8%

Cc1[nH]c(/C=C2\C(=O)Nc3ncc(Br)cc32)c(C)c1C(=O)NCCN(C)C
inhibition at 30 µM (MCF7 [1]): 79.4% | IC50 (MCF7 [2]): 14.1 µM | IC50 (HepG2): 6.57 µM | IC50 (HT-29): 5.04 µM | IC50 (A549): 4.57 µM | IC50 [3]: 11.6 µM | IC50 (HeLa): 17.9 µM | IC50 (SK-OV-3): 4.98 µM

Cc1[nH]c(/C=C2\C(=O)Nc3ncc(F)cc32)c(C)c1C(=O)O
inhibition at 30 µM (MCF7 [1]): 20.5%

Cc1[nH]c(/C=C2\C(=O)Nc3ncc(Br)cc32)c(C)c1C(=O)O
inhibition at 30 µM (MCF7 [1]): 19.6%

Cc1[nH]c(/C=C2\C(=O)Nc3ncc(F)cc32)c(C)c1C(=O)NCCN1CCCC1
inhibition at 30 µM (MCF7 [1]): 37.5%

Cc1[nH]c(/C=C2\C(=O)Nc3ncc(F)cc32)c(C)c1C(=O)NCCN1CCOCC1
inhibition at 30 µM (MCF7 [1]): 15.6%

Cc1[nH]c(/C=C2\C(=O)Nc3ncc(F)cc32)c(C)c1C(=O)NCC(C)O (configuration not stated)
inhibition at 30 µM (MCF7 [1]): 0%

CCN(CC)CCNC(=O)c1c(C)[nH]c(/C=C2\C(=O)Nc3ccc(F)cc32)c1C [SUNITINIB]
inhibition at 30 µM (MCF7 [1]): 94% | IC50 (MCF7 [2]): 25.4 µM | IC50 (HepG2): 16.1 µM | IC50 (HT-29): 4.7 µM | IC50 (A549): 7.93 µM | IC50 [3]: 14.9 µM | IC50 (HeLa): > 30 µM | IC50 (SK-OV-3): 9.21 µM

CCOC(=O)c1c(C)[nH]c(/C=C2\C(=O)Nc3ncc(F)cc32)c1C
inhibition at 30 µM (MCF7 [1]): 60.4%

Cc1[nH]c(/C=C2\C(=O)Nc3ncc(Br)cc32)c(C)c1C(=O)NCCN1CCCC1
inhibition at 30 µM (MCF7 [1]): 86.9% | IC50 (MCF7 [2]): 15.1 µM | IC50 (HepG2): 9.36 µM | IC50 (HT-29): 4.49 µM | IC50 (A549): 4.82 µM | IC50 [3]: 6.2 µM | IC50 (HeLa): 15.4 µM | IC50 (SK-OV-3): 5.15 µM

Cc1[nH]c(/C=C2\C(=O)Nc3ncc(F)cc32)c(C)c1C(=O)NCCOCc1ccccc1
inhibition at 30 µM (MCF7 [1]): 4.1%

Cc1[nH]c(/C=C2\C(=O)Nc3ncc(F)cc32)c(C)c1C(=O)NCC1CCN(C)CC1
inhibition at 30 µM (MCF7 [1]): 78% | IC50 (MCF7 [2]): > 30 µM | IC50 (HepG2): 21.2 µM | IC50 (HT-29): 5.72 µM | IC50 [3]: > 30 µM

CCN(CC)CCNC(=O)c1c(C)[nH]c(/C=C2\C(=O)Nc3ncc(F)cc32)c1C
inhibition at 30 µM (MCF7 [1]): 70.7% | IC50 (MCF7 [2]): > 30 µM | IC50 (HepG2): 15 µM | IC50 (HT-29): 6.27 µM | IC50 [3]: > 30 µM

Cc1[nH]c(/C=C2\C(=O)Nc3ncc(Br)cc32)c(C)c1C(=O)NCC1CCN(C)CC1
inhibition at 30 µM (MCF7 [1]): 82.8% | IC50 (MCF7 [2]): > 30 µM | IC50 (HepG2): 21.8 µM | IC50 (HT-29): 5.57 µM | IC50 (A549): 15.2 µM | IC50 [3]: 26.9 µM | IC50 (HeLa): > 30 µM | IC50 (SK-OV-3): 19.2 µM

CCN(CC)CCNC(=O)c1c(C)[nH]c(/C=C2\C(=O)Nc3ncc(Br)cc32)c1C
inhibition at 30 µM (MCF7 [1]): 89.7% | IC50 (MCF7 [2]): 27.8 µM | IC50 (HepG2): 12 µM | IC50 (HT-29): 3.99 µM | IC50 (A549): 6.46 µM | IC50 [3]: 15.6 µM | IC50 (HeLa): 26.7 µM | IC50 (SK-OV-3): 11.8 µM

Cc1[nH]c(/C=C2\C(=O)Nc3ncc(Cl)cc32)c(C)c1C(=O)NCCN1CCCC1
inhibition at 30 µM (MCF7 [1]): 91.3% | IC50 (MCF7 [2]): 15.6 µM | IC50 (HepG2): 7.87 µM | IC50 (HT-29): 12.5 µM | IC50 (A549): 11.4 µM | IC50 [3]: 10.3 µM | IC50 (HeLa): 24.5 µM | IC50 (SK-OV-3): 16.1 µM

Cc1[nH]c(/C=C2\C(=O)Nc3ncc(Cl)cc32)c(C)c1C(=O)NCCN1CCOCC1
inhibition at 30 µM (MCF7 [1]): 6%

Cc1[nH]c(/C=C2\C(=O)Nc3ncc(F)cc32)c(C)c1C(=O)NC1CC1
inhibition at 30 µM (MCF7 [1]): 6.3%

Cc1[nH]c(/C=C2\C(=O)Nc3ncc(Cl)cc32)c(C)c1C(=O)NC1CC1
inhibition at 30 µM (MCF7 [1]): 6.2%

Cc1[nH]c(/C=C2\C(=O)Nc3ncc(Br)cc32)c(C)c1C(=O)NCCN1CCOCC1
inhibition at 30 µM (MCF7 [1]): 6%

Cc1[nH]c(/C=C2\C(=O)Nc3ncc(Cl)cc32)c(C)c1C(=O)NCC1CCN(C)CC1
inhibition at 30 µM (MCF7 [1]): 88.4% | IC50 (MCF7 [2]): > 30 µM | IC50 (HepG2): 12.7 µM | IC50 (HT-29): 5.57 µM | IC50 (A549): 16.9 µM | IC50 [3]: > 30 µM | IC50 (HeLa): > 30 µM | IC50 (SK-OV-3): 16.4 µM

Cc1[nH]c(/C=C2\C(=O)Nc3ncc(F)cc32)c(C)c1C(=O)NCCN(C)C
inhibition at 30 µM (MCF7 [1]): 61.1%

CCN(CC)CCNC(=O)c1c(C)[nH]c(/C=C2\C(=O)Nc3ncc(Cl)cc32)c1C
inhibition at 30 µM (MCF7 [1]): 88.9% | IC50 (MCF7 [2]): 26.3 µM | IC50 (HepG2): 12.4 µM | IC50 (HT-29): 6.93 µM | IC50 (A549): 10.3 µM | IC50 [3]: 14 µM | IC50 (HeLa): 29.4 µM | IC50 (SK-OV-3): 8.28 µM
